Data: patent US20180273531A1, “PYRIMIDINE COMPOUND AND MEDICAL USE THEREOF” (Japan Tobacco Inc., priority 2004, published 2018)

Test system: colorectal cancer cell line HT-29 cells
Assay: Growth inhibitory effect against cancer cell lines (3H-thymidine uptake), HT-29
Format: cell-based
Conditions: Homo sapiens, HT-29, inhibition of 3H-thymidine uptake; test substance 18 hrs, then 3H-thymidine 6 hrs; triplicate
Summary of the method: (§1)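 Cells seeded at 1.0×10^4/well, grown 24 hrs, then exposed to compound in DMSO for 18 hrs before 6 hrs pulse with ^3H-thymidine (0.25 μCi/well). Harvested cell-incorporated radioactivity counted; IC50 is the concentration halving uptake versus DMSO control, triplicate.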

Compound | IC50
CC(C)S(=O)(=O)Nc1cccc(-n2c(=O)n(C3CC3)c(=O)c3c(Nc4ccc(Br)cc4F)cc(=O)n(C)c32)c1 [Example 1-272] | 10 to 100 nM
Cn1c(=O)cc(Nc2ccc(Br)cc2F)c2c(=O)n(C3CC3)c(=O)n(-c3cccc(NS(=O)(=O)CCl)c3)c21 [Example 1-282] | 10 to 100 nM
CNc1cccc(-n2c(=O)n(C3CC3)c(=O)c3c(Nc4ccc(Br)cc4F)cc(=O)n(C)c32)c1 [Example 1-283] | 10 to 100 nM
Cn1c(=O)cc(Nc2ccc(Br)cc2F)c2c(=O)n(C3CC3)c(=O)n(-c3cccc(NS(=O)(=O)c4ccccc4)c3)c21 [Example 1-284] | 10 to 100 nM
CSc1ccc(Nc2cc(=O)n(C)c3c2c(=O)n(C2CC2)c(=O)n3-c2ccccc2)c(F)c1 [Example 1-285] | 10 to 100 nM
CSc1ccc(Nc2cc(=O)n(C)c3c2c(=O)n(C2CC2)c(=O)n3-c2cccc(NS(C)(=O)=O)c2)c(F)c1 [Example 1-286] | < 10 nM
CC(C)C(=O)Nc1cccc(-n2c(=O)n(C3CC3)c(=O)c3c(Nc4ccc(Br)cc4F)cc(=O)n(C)c32)c1 [Example 1-287] | 10 to 100 nM
C#Cc1ccc(Nc2cc(=O)n(C)c3c2c(=O)n(C2CC2)c(=O)n3-c2cccc(NS(=O)(=O)CC)c2)c(F)c1 [Example 1-289] | < 10 nM
C#Cc1ccc(Nc2cc(=O)n(C)c3c2c(=O)n(C2CC2)c(=O)n3-c2cccc(NS(C)(=O)=O)c2)cc1 [Example 1-290] | < 10 nM

Test system: p15 protein
Assay: Evaluation of p15 induction activity (Western blotting)
Format: cell-based
Conditions: test substance 0.1 μM, 24 hrs, ACHN cells or HT-29 cells, compared to DMSO, n=2
Summary of the method: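 p15 protein quantified by densitometry of anti-p15 Western blots (10 μg protein per lane, mean of n=2). Samples came from HT-29 or ACHN cells given 0.1 μM compound for 24 h after 24 h plating, with DMSO as control.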

Compound | fold induction at 0.1 µM
CC(C)S(=O)(=O)Nc1cccc(-n2c(=O)n(C3CC3)c(=O)c3c(Nc4ccc(Br)cc4F)cc(=O)n(C)c32)c1 [Example 1-272] | ≥ 1.5
Cn1c(=O)cc(Nc2ccc(Br)cc2F)c2c(=O)n(C3CC3)c(=O)n(-c3cccc(NS(=O)(=O)CCl)c3)c21 [Example 1-282] | ≥ 1.5
CNc1cccc(-n2c(=O)n(C3CC3)c(=O)c3c(Nc4ccc(Br)cc4F)cc(=O)n(C)c32)c1 [Example 1-283] | ≥ 1.5
Cn1c(=O)cc(Nc2ccc(Br)cc2F)c2c(=O)n(C3CC3)c(=O)n(-c3cccc(NS(=O)(=O)c4ccccc4)c3)c21 [Example 1-284] | ≥ 1.5
CSc1ccc(Nc2cc(=O)n(C)c3c2c(=O)n(C2CC2)c(=O)n3-c2ccccc2)c(F)c1 [Example 1-285] | ≥ 1.5
CSc1ccc(Nc2cc(=O)n(C)c3c2c(=O)n(C2CC2)c(=O)n3-c2cccc(NS(C)(=O)=O)c2)c(F)c1 [Example 1-286] | ≥ 1.5
CC(C)C(=O)Nc1cccc(-n2c(=O)n(C3CC3)c(=O)c3c(Nc4ccc(Br)cc4F)cc(=O)n(C)c32)c1 [Example 1-287] | ≥ 1.5
C#Cc1ccc(Nc2cc(=O)n(C)c3c2c(=O)n(C2CC2)c(=O)n3-c2cccc(NS(=O)(=O)CC)c2)c(F)c1 [Example 1-289] | ≥ 1.5
C#Cc1ccc(Nc2cc(=O)n(C)c3c2c(=O)n(C2CC2)c(=O)n3-c2cccc(NS(C)(=O)=O)c2)cc1 [Example 1-290] | ≥ 1.5

Test system: p27 protein
Assay: p27 protein induction test (Western blotting)
Format: cell-based
Conditions: test substance (0.1 1M), 24 hrs, ACHN cells or HT-29 cells, compared to DMSO, n=2
Description: ACHN cells or HT-29 cells were cultured in a 6 well plate at 2.5×10^5 cells/1.8 mL/well for 24 hrs, a test substance ([…]) dissolved in DMSO was added. After 24 hrs, cells were detached using trypsin-EDTA (ethylene diamine tetraacetic acid) and solubilized with NuPAGE LDS sample buffer (Invitrogen). Using an RC DC protein assay kit (BIO-RAD), the protein concentration of the sample was quantitated, and a sample in an amount corresponding to 10 μg of BSA (bovine serum albumin) was analyzed by Western blotting using an anti-p27 antibody. The density of the band stained with the anti-p27 antibody was measured by a densitometer to quantify the amount of p27 protein. As a control, DMSO was used and the test was performed with n=2 and the average protein amount was determined.

Compound | fold induction at 0.1 µM
CC(C)S(=O)(=O)Nc1cccc(-n2c(=O)n(C3CC3)c(=O)c3c(Nc4ccc(Br)cc4F)cc(=O)n(C)c32)c1 [Example 1-272] | ≥ 1.5
Cn1c(=O)cc(Nc2ccc(Br)cc2F)c2c(=O)n(C3CC3)c(=O)n(-c3cccc(NS(=O)(=O)CCl)c3)c21 [Example 1-282] | ≥ 1.5
CNc1cccc(-n2c(=O)n(C3CC3)c(=O)c3c(Nc4ccc(Br)cc4F)cc(=O)n(C)c32)c1 [Example 1-283] | ≥ 1.5
Cn1c(=O)cc(Nc2ccc(Br)cc2F)c2c(=O)n(C3CC3)c(=O)n(-c3cccc(NS(=O)(=O)c4ccccc4)c3)c21 [Example 1-284] | ≥ 1.5
CSc1ccc(Nc2cc(=O)n(C)c3c2c(=O)n(C2CC2)c(=O)n3-c2ccccc2)c(F)c1 [Example 1-285] | ≥ 1.5
CSc1ccc(Nc2cc(=O)n(C)c3c2c(=O)n(C2CC2)c(=O)n3-c2cccc(NS(C)(=O)=O)c2)c(F)c1 [Example 1-286] | ≥ 1.5
CC(C)C(=O)Nc1cccc(-n2c(=O)n(C3CC3)c(=O)c3c(Nc4ccc(Br)cc4F)cc(=O)n(C)c32)c1 [Example 1-287] | ≥ 1.5
C#Cc1ccc(Nc2cc(=O)n(C)c3c2c(=O)n(C2CC2)c(=O)n3-c2cccc(NS(=O)(=O)CC)c2)c(F)c1 [Example 1-289] | ≥ 1.5
C#Cc1ccc(Nc2cc(=O)n(C)c3c2c(=O)n(C2CC2)c(=O)n3-c2cccc(NS(C)(=O)=O)c2)cc1 [Example 1-290] | ≥ 1.5

Test system: Renal cancer cell line ACHN cell
Assay: Growth inhibitory effect against cancer cell lines (3H-thymidine uptake), ACHN
Format: cell-based
Conditions: Homo sapiens, ACHN
Summary of the method: as §1

Compound | IC50
CC(C)S(=O)(=O)Nc1cccc(-n2c(=O)n(C3CC3)c(=O)c3c(Nc4ccc(Br)cc4F)cc(=O)n(C)c32)c1 [Example 1-272] | 10 to 100 nM
Cn1c(=O)cc(Nc2ccc(Br)cc2F)c2c(=O)n(C3CC3)c(=O)n(-c3cccc(NS(=O)(=O)CCl)c3)c21 [Example 1-282] | 100 to 1000 nM
CNc1cccc(-n2c(=O)n(C3CC3)c(=O)c3c(Nc4ccc(Br)cc4F)cc(=O)n(C)c32)c1 [Example 1-283] | 100 to 1000 nM
Cn1c(=O)cc(Nc2ccc(Br)cc2F)c2c(=O)n(C3CC3)c(=O)n(-c3cccc(NS(=O)(=O)c4ccccc4)c3)c21 [Example 1-284] | 100 to 1000 nM
CSc1ccc(Nc2cc(=O)n(C)c3c2c(=O)n(C2CC2)c(=O)n3-c2ccccc2)c(F)c1 [Example 1-285] | 10 to 100 nM
CSc1ccc(Nc2cc(=O)n(C)c3c2c(=O)n(C2CC2)c(=O)n3-c2cccc(NS(C)(=O)=O)c2)c(F)c1 [Example 1-286] | 10 to 100 nM
CC(C)C(=O)Nc1cccc(-n2c(=O)n(C3CC3)c(=O)c3c(Nc4ccc(Br)cc4F)cc(=O)n(C)c32)c1 [Example 1-287] | 100 to 1000 nM
C#Cc1ccc(Nc2cc(=O)n(C)c3c2c(=O)n(C2CC2)c(=O)n3-c2cccc(NS(=O)(=O)CC)c2)c(F)c1 [Example 1-289] | < 10 nM
C#Cc1ccc(Nc2cc(=O)n(C)c3c2c(=O)n(C2CC2)c(=O)n3-c2cccc(NS(C)(=O)=O)c2)cc1 [Example 1-290] | 10 to 100 nM
